Test results taken from patent US8067454B2, “Thio-substituted Anthra [1, 2-d] imidazole- 6, 11-dione derivatives, preparation method and application thereof” (National Defense Medical Center, priority 2010, dated 2011).

Key:
[1] = system: SVG p12; assay: MTT assay, SVG p12 normal cell; settings: for Cell survival rate (%) SVG p12: concentration 10 μM, normal cell
[2] = system: GBM8401; assay: MTT assay, GBM8401 tumor cell; settings: for Cell survival rate (%) GBM8401: concentration 10 μM, tumor cell; for inhibitory effect against tumor cell GBM8401: survival rate less than 80%
[3] = system: GBM8901; assay: MTT assay, GBM8901 tumor cell; settings: for Cell survival rate (%) GBM8901: concentration 10 μM, tumor cell
[4] = system: SVG p12, GBM8401 and GBM8901; assay: MTT assay, normal cell versus tumor cells (categories 39-3 to 39-7); settings: tumor cell survival rate less than 80%; for category 39-3: survival rate higher than 80% for normal cell SVG p12 and inhibits growth of both tumor cells GBM8401 and GBM8901: FIG. 5A; for category 39-5: survival rate higher than 80% for normal cell SVG p12 and only inhibits growth of tumor cell GBM8901: FIG. 5C
[5] = system: telomerase (total cell lysates of lung cancer cell line H1299); assay: Telomeric Repeat Amplification Protocol (TRAP) assay, screen of telomerase inhibitors; assay type: biochemical, human; settings: 10 μM
Procedure: Telomeric Repeat Amplification Protocol (TRAP) Assay:
Telomerase activity was detected by a modified version of the general TRAP protocol. Telomerase products were resolved by 10% polyacrylamide gel electrophoresis and visualized by staining with SYBER Green. As a source of telomerase, the total cell lysates derived from lung cancer cell line H1299 cells were used. Protein concentration of the lysates was assayed using Bio-Rad protein assay kit using BSA standards.
In the TRAP assay, if a compound can stabilize the G-quadruplex structure such that telomerase can not act on telomere, then the effect of inhibiting the telomerase can be achieved. In the FIG. 2A to FIG. 2C, DMSO treatment represents as the positive control group (P); while a negative control group (N) used 5 μl of 0.1 mg/ml RNase A (CLONTECH) in the assay. It could be observed that a number of telomeric fragments were detected in the positive control group (P), while none was detected in the negative control group (N). 10 μM was selected as the concentration used to screen compounds.

O=C1c2ccccc2C(=O)c2c1ccc1nc(SC(=O)N3CCCC3)[nH]c21 [f2-7, S-6,11-dioxo-6,11-dihydro-1H-anthra[1,2-d]imidazol-2-yl pyrrolidine-1-carbothioate]
Cell survival rate (%) SVG p12 [1]: 62 ± 5%
Cell survival rate (%) GBM8401 [2]: 72 ± 18%
inhibitory effect against tumor cell GBM8401 [2]: exhibited inhibitory effect against tumor cell GBM8401
Cell survival rate (%) GBM8901 [3]: 42 ± 7%

O=C1c2ccccc2C(=O)c2c1ccc1nc(SCCCCCCCl)[nH]c21 [f1-10, 2-(6-Chlorohexylthio)-1H-anthra[1,2-d]imidazole-6,11-dione]
Cell survival rate (%) SVG p12 [1]: 81 ± 1%
Cell survival rate (%) GBM8401 [2]: 78 ± 5%
category 39-3: survival rate higher than 80% for normal cell SVG p12 and inhibits growth of both tumor cells GBM8401 and GBM8901 [4]: in this category
Cell survival rate (%) GBM8901 [3]: 60 ± 2%

Cc1ccccc1CSc1nc2ccc3c(c2[nH]1)C(=O)c1ccccc1C3=O [f1-4, 2-(2-Methylbenzylthio)-1H-anthra[1,2-d]imidazole-6,11-dione]
Cell survival rate (%) SVG p12 [1]: 58 ± 5%
Cell survival rate (%) GBM8401 [2]: 25 ± 10%
Cell survival rate (%) GBM8901 [3]: 18 ± 8%

O=C1c2ccccc2C(=O)c2c1ccc1nc(SCCCCCl)[nH]c21 [f1-8, 2-(4-Chlorobutylthio)-1H-anthra[1,2-d]imidazole-6,11-dione]
Cell survival rate (%) SVG p12 [1]: 66 ± 3%
Cell survival rate (%) GBM8401 [2]: 43 ± 10%
Cell survival rate (%) GBM8901 [3]: 65 ± 10%

O=C1c2ccccc2C(=O)c2c1ccc1nc(SCCCN3CCCCC3)[nH]c21 [f1-14, 2-(3-(piperidin-1-yl)propylthio)-1H-anthra[1,2-d]imidazole-6,11-dione]
Cell survival rate (%) SVG p12 [1]: 12 ± 1%
Cell survival rate (%) GBM8401 [2]: 6 ± 10%
Cell survival rate (%) GBM8901 [3]: 10 ± 2%

O=C1c2ccccc2C(=O)c2c1ccc1nc(SCCN3CCOCC3)[nH]c21 [f1-13, 2-(2-morpholinoethylthio)-1H-anthra[1,2-d]imidazole-6,11-dione]
Cell survival rate (%) SVG p12 [1]: 62 ± 8%
Cell survival rate (%) GBM8401 [2]: 38 ± 9%
Cell survival rate (%) GBM8901 [3]: 68 ± 2%

CCCN(CCC)C(=O)CSc1nc2ccc3c(c2[nH]1)C(=O)c1ccccc1C3=O [f1-23, 2-(6,11-dioxo-6,11-dihydro-1H-anthra[1,2-d]imidazol-2-ylthio)-N,N-dipropylacetamide]
Cell survival rate (%) SVG p12 [1]: 80 ± 7%
Cell survival rate (%) GBM8401 [2]: 82 ± 15%
category 39-5: survival rate higher than 80% for normal cell SVG p12 and only inhibits growth of tumor cell GBM8901 [4]: in this category
Cell survival rate (%) GBM8901 [3]: 18 ± 0%

O=C1c2ccccc2C(=O)c2c1ccc1nc(SCCN3CCCCC3)[nH]c21 [f1-12, 2-(2-(Piperidin-1-yl)ethylthio)-1H-anthra[1,2-d]imidazole-6,11-dione]
Cell survival rate (%) SVG p12 [1]: 22 ± 8%
Cell survival rate (%) GBM8401 [2]: 6 ± 13%
Cell survival rate (%) GBM8901 [3]: 42 ± 8%
inhibition effect against telomerase [5]: exhibited inhibition effect against telomerase

O=C1c2ccccc2C(=O)c2c1ccc1nc(SC(=O)N3CCOCC3)[nH]c21 [f2-2, S-6,11-dioxo-6,11-dihydro-1H-anthra[1,2-d]imidazol-2-yl morpholine-4-carbothioate]
Cell survival rate (%) SVG p12 [1]: 96 ± 7%
Cell survival rate (%) GBM8401 [2]: 92 ± 11%
Cell survival rate (%) GBM8901 [3]: 43 ± 2%
inhibition effect against telomerase [5]: exhibited inhibition effect against telomerase

CCN(CC)C(=O)CSc1nc2ccc3c(c2[nH]1)C(=O)c1ccccc1C3=O [f1-18, 2-(6,11-dioxo-6,11-dihydro-1H-anthra[1,2-d]imidazol-2-ylthio)-N,N-diethylacetamide]
Cell survival rate (%) SVG p12 [1]: 65 ± 3%
Cell survival rate (%) GBM8401 [2]: 23 ± 13%
Cell survival rate (%) GBM8901 [3]: 42 ± 3%
inhibition effect against telomerase [5]: exhibited inhibition effect against telomerase

O=C1c2ccccc2C(=O)c2c1ccc1nc(SCCC(=O)N3CCOCC3)[nH]c21 [f1-17, 2-(3-morpholino-3-oxopropylthio)-1H-anthra[1,2-d]imidazole-6,11-dione]
Cell survival rate (%) SVG p12 [1]: 80 ± 0%
without cell toxicity for normal cell SVGP p12 ([1]; survival rate higher than 80%): without cell toxicity for normal cell SVGP p12
Cell survival rate (%) GBM8401 [2]: 23 ± 10%
category 39-4: survival rate higher than 80% for normal cell SVG p12 and only inhibits growth of tumor cell GBM8401 ([4]; FIG. 5B): in this category
Cell survival rate (%) GBM8901 [3]: 48 ± 1%

O=C1c2ccccc2C(=O)c2c1ccc1nc(SCC(=O)N3CCOCC3)[nH]c21 [f1-16, 2-(2-morpholino-2-oxoethylthio)-1H-anthra[1,2-d]imidazole-6,11-dione]
Cell survival rate (%) SVG p12 [1]: 60 ± 1%
Cell survival rate (%) GBM8401 [2]: 30 ± 9%
Cell survival rate (%) GBM8901 [3]: 39 ± 2%

COC(=O)CCCSc1nc2ccc3c(c2[nH]1)C(=O)c1ccccc1C3=O [f1-5, Methyl-(6,11-dioxo-6,11-dihydro-1H-anthra[1,2-d]imidazol-2-ylthio)butanoate]
Cell survival rate (%) SVG p12 [1]: 92 ± 5%
Cell survival rate (%) GBM8401 [2]: 70 ± 10%
Cell survival rate (%) GBM8901 [3]: 80 ± 2%

C#CCSc1nc2ccc3c(c2[nH]1)C(=O)c1ccccc1C3=O [f1-7, 2-(prop-2-ynylthio)-1H-anthra[1,2-d]imidazole-6,11-dione]
Cell survival rate (%) SVG p12 [1]: 98 ± 2%
Cell survival rate (%) GBM8401 [2]: 38 ± 10%
category 39-5: survival rate higher than 80% for normal cell SVG p12 and only inhibits growth of tumor cell GBM8901 [4]: in this category
Cell survival rate (%) GBM8901 [3]: 7 ± 2%

CCN(CC)C(=O)CCSc1nc2ccc3c(c2[nH]1)C(=O)c1ccccc1C3=O [f1-20, 3-(6,11-dioxo-6,11-dihydro-1H-anthra[1,2-d]imidazol-2-ylthio)-N,N-diethylpropanamide]
Cell survival rate (%) SVG p12 [1]: 46 ± 2%
Cell survival rate (%) GBM8401 [2]: 28 ± 11%
Cell survival rate (%) GBM8901 [3]: 30 ± 2%

CCN(CC)C(=O)Sc1nc2ccc3c(c2[nH]1)C(=O)c1ccccc1C3=O [f2-9, S-6,11-dioxo-6,11-dihydro-1H-anthra[1,2-d]imidazol-2-yl diethylcarbamothioate]
Cell survival rate (%) SVG p12 [1]: 90 ± 8%
Cell survival rate (%) GBM8401 [2]: 46 ± 13%
inhibitory effect against tumor cell GBM8401 [2]: exhibited inhibitory effect against tumor cell GBM8401
category 39-3: survival rate higher than 80% for normal cell SVG p12 and inhibits growth of both tumor cells GBM8401 and GBM8901 [4]: in this category
Cell survival rate (%) GBM8901 [3]: 50 ± 0%
inhibitory effect against tumor cell GBM8901 ([3]; survival rate less than 80%): exhibited inhibitory effect against tumor cell GBM8901

O=C(Sc1nc2ccc3c(c2[nH]1)C(=O)c1ccccc1C3=O)c1cc(C(F)(F)F)ccc1C(F)(F)F [f2-5, S-6,11-dioxo-6,11-dihydro-1H-anthra[1,2-d]imidazol-2-yl 2,5-bis(trifluoromethyl)benzothioate]
Cell survival rate (%) SVG p12 [1]: 82 ± 1%
Cell survival rate (%) GBM8401 [2]: 40 ± 13%
category 39-3: survival rate higher than 80% for normal cell SVG p12 and inhibits growth of both tumor cells GBM8401 and GBM8901 [4]: in this category
Cell survival rate (%) GBM8901 [3]: 68 ± 6%

O=C1c2ccccc2C(=O)c2c1ccc1nc(SCCC(=O)N3CCCC3)[nH]c21 [f1-22, 2-(3-oxo-3-(pyrrolidin-1-yl)propylthio)-1H-anthra[1,2-d]imidazole-6,11-dione]
Cell survival rate (%) SVG p12 [1]: 80 ± 3%
Cell survival rate (%) GBM8401 [2]: 40 ± 15%
category 39-5: survival rate higher than 80% for normal cell SVG p12 and only inhibits growth of tumor cell GBM8901 [4]: in this category
Cell survival rate (%) GBM8901 [3]: 28 ± 2%

COC(=O)/C=C/CSc1nc2ccc3c(c2[nH]1)C(=O)c1ccccc1C3=O [f1-6, (E)-methyl 4-(6,11-dioxo-6,11-dihydro-1H-anthra[1,2-d]imidazol-2-ylthio)but-2-enoate]
Cell survival rate (%) SVG p12 [1]: 90 ± 6%
Cell survival rate (%) GBM8401 [2]: 82 ± 7%
category 39-5: survival rate higher than 80% for normal cell SVG p12 and only inhibits growth of tumor cell GBM8901 [4]: in this category
Cell survival rate (%) GBM8901 [3]: 44 ± 5%

O=C(CCc1ccccc1)Sc1nc2ccc3c(c2[nH]1)C(=O)c1ccccc1C3=O [f2-4, S-6,11-dioxo-6,11-dihydro-1H-anthra[1,2-d]imidazol-2-yl 3-phenylpropanethioate]
Cell survival rate (%) SVG p12 [1]: 61 ± 2%
Cell survival rate (%) GBM8401 [2]: 62 ± 15%
Cell survival rate (%) GBM8901 [3]: 72 ± 6%

O=C1c2ccccc2C(=O)c2c1ccc1nc(SC(=O)N3CCCCC3)[nH]c21 [f2-8, S-6,11-dioxo-6,11-dihydro-1H-anthra[1,2-d]imidazol-2-yl piperidine-1-carbothioate]
Cell survival rate (%) SVG p12 [1]: 92 ± 3%
Cell survival rate (%) GBM8401 [2]: 99 ± 25%
Cell survival rate (%) GBM8901 [3]: 100 ± 0%

CN1CCN(C(=O)Sc2nc3ccc4c(c3[nH]2)C(=O)c2ccccc2C4=O)CC1 [f2-3, S-6,11-dioxo-6,11-dihydro-1H-anthra[1,2-d]imidazol-2-yl 4-methylpiperazine-1-carbothioate]
Cell survival rate (%) SVG p12 [1]: 62 ± 3%
Cell survival rate (%) GBM8401 [2]: 62 ± 11%
Cell survival rate (%) GBM8901 [3]: 38 ± 2%
inhibition effect against telomerase [5]: exhibited inhibition effect against telomerase

CCCCSc1nc2ccc3c(c2[nH]1)C(=O)c1ccccc1C3=O [f1-3, 2-(Butylthio)-1H-anthra[1,2-d]imidazole-6,11-dione]
Cell survival rate (%) SVG p12 [1]: 98 ± 7%
Cell survival rate (%) GBM8401 [2]: 78 ± 16%
category 39-5: survival rate higher than 80% for normal cell SVG p12 and only inhibits growth of tumor cell GBM8901 [4]: in this category
Cell survival rate (%) GBM8901 [3]: 10 ± 4%
